Source: patent US10087199B2, “Super-resolution imaging compositions and methods using same” (Yale University, priority 2014, dated 2018)

Columns and labels:
[1] = test system: fixed cells with labeled Golgi; test: Photostability in STED microscopy of fixed cells; format: cell-based; conditions: 0.52 frames/sec for 29 min (900 images)
Experimental: To evaluate the merits of Cer-SiR for super-resolution imaging of the Golgi, HeLa cells that stably expressed GalNAcT2-GFP were labeled with Cer-TCO and SiR-Tz, and imaged by confocal and STED microscopy using a commercial Leica instrument (FIGS. 6A-6C). The confocal and STED images were compared in FIG. 6A. […] A direct comparison of the relative photostabilities of Cer-SiR and SiR-SNAP-Rab6 in fixed cells was performed using a custom STED microscope that is optimized for rapid image acquisition (FIG. 6B). Cells labeled with Cer-SiR or SiR-SNAPRab6 were continuously imaged at a rate of 0.52 frames/sec for 29 min (900 images) and the intensity of a line across the Golgi was plotted (FIG. 6B). […]
STED imaging was performed on a custom built system (Bewersdorf lab, Yale University) centered around an 80 MHz mode-locked Ti:Sapphhire laser (Chameleon Ultra II, Coherent) tuned to 755 nm as the STED depletion beam. […] Excitation for fluorescence was accomplished with a 640 nm pulsed diode laser (PicoQuant) electronically synchronized to the depletion beam with an additional computer controlled electronic delay (Colby Instruments). The STED depletion and fluorescence excitation beams were combined with a dichroic mirror and directed into a 100×1.4 NA oil immersion objective lens (UPLSAPO 100XO/PSF, Olympus) where they were focused at the sample. […]

[2] = test system: HeLa cells (Golgi label); test: Photostability in sequential 3D spinning disk confocal imaging; format: cell-based; conditions: fixed cells
Experimental: The relative photostability of Cer-TCO/SiR-Tz to both BODIPY-Cer and the SiR labeled SNAP-tag Golgi protein Rab6 was compared. The latter is the product of reaction between Rab6-SNAP and a benzyl guanine derivative of SiR (SiR-BG) (Lukinavicius, et al., 2013, Nature Chem. 5:132-139) and thus contains the same near-IR dye as SiR-Tz (FIGS. 5A-5B). HeLa cells were treated with Cer-TCO/SiR-Tz or BODIPY-Cer, while Rab6-SNAP-expressing cells were treated with SiR-BG. The cells were then examined in sequential 3D images using spinning disk confocal microscopy; 3D visualization limited fluorescence fluctuations due to axial sample drift. In each case, 3D “stacks” of 22 optical sections were acquired in series up to 500 times in live or fixed cells (FIGS. 5A-5B). In live cells, even under optimal imaging conditions the BODIPY-Cer fluorescent signal decreased by 50% after fewer than 15 stacks. In striking contrast, the fluorescent signal of cells treated with 2 μM Cer-TCO followed by 2 μM SiR-Tz decreased by only 10% after more than 120 3D stacks had been acquired. Consistent with a lower density of Rab6-SNAP protein in the Golgi, the signal from Rab6-SNAP-SiR decayed at an intermediate rate, decreasing by 50% after about 50 3D stacks. […] After 500 3D stacks the fluorescent signal of Cer-SiR decreased 16% whereas that of Rab6-SNAP-SiR decreased by 84%. […]

In the case of `CCCCCCCCCCCCC/C=C/[C@@H](O)[C@H](CO)NC(=O)CCCCCNC(=O)OC1CCCC2=C(c3ccc(CNC(=O)c4ccc(C(=O)[O-])c(C5=C6C=CC(=[N+](C)C)C=C6[Si](C)(C)c6cc(N(C)C)ccc65)c4)cc3)NN=CC2CC1` (stereo partly drawn) [Cer-SiR, 4-((4-(7-(((6-(((2S,3R,E)-1,3-dihydroxyoctadec-4-en-2-yl)amino)-6-oxohexyl)carbamoyl)oxy)-2,4a,5,6,7,8,9,10-octahydrocycloocta[d]pyridazin-1-yl)benzyl)carbamoyl)-2-(7-(dimethylamino)-3-(dimethyliminio)-5,5-dimethyl-3,5-dihydrodibenzo[b,e]silin-10-yl)benzoate], the “Stability of STED images under continuous imaging” value [1] is reported as “stable throughout all 900 images” and the “Decrease of fluorescent signal after 500 3D stacks” value [2] is reported as 16%.
